In PubChem BioAssay AID330 (DTP/NCI, 2004):
Several values for one entry are separate records, joined by “and”; a condition that tells them apart may be missing. Equal values may be shown once. Inconclusive results and toxic doses are left out. The calls were made as follows: active = survival T/C of 150% or more; inactive = T/C below 125% in these data.

Tested on: P388 leukemia ip, CD2F1 mice, survival T/C
Test: NCI In Vivo Anticancer Drug Screen. Data for tumor model P388 Leukemia (intraperitoneal) in CD2F1 (CDF1) mice
Conditions: endpoint: median survival time, higher = longer survival
How it was run: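 Mice carrying the transplanted tumor received test compound or vehicle. Survival was recorded in each group, and the value is the treated-group measurement divided by that of the vehicle-treated control group.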

[1] = dose: 60.0 mg/kg/injection, schedule: Q01DX005 (ip), vehicle: saline with Tween-80
[2] = dose: 120.0 mg/kg/injection, schedule: Q01DX005 (ip), vehicle: saline with Tween-80
[3] = dose: 50.0 mg/kg/injection, schedule: Q01DX009 (ip), vehicle: saline
[4] = dose: 50.0 mg/kg/injection, schedule: Q01DX009 (ip), vehicle: Klucel (hydroxypropylcellulose) (HPC)
[5] = dose: 100.0 mg/kg/injection, schedule: Q01DX009 (ip), vehicle: Klucel (hydroxypropylcellulose) (HPC)
[6] = dose: 100.0 mg/kg/injection, schedule: Q01DX009 (ip), vehicle: saline with Tween-80
[7] = dose: 100.0 mg/kg/injection, schedule: Q04DX003 (ip), vehicle: Klucel (hydroxypropylcellulose) (HPC)
[8] = dose: 200.0 mg/kg/injection, schedule: Q04DX003 (ip), vehicle: Klucel (hydroxypropylcellulose) (HPC)
[9] = dose: 200.0 mg/kg/injection, schedule: Q01DX009 (ip), vehicle: Klucel (hydroxypropylcellulose) (HPC)
[10] = dose: 50.0 mg/kg/injection, schedule: Q01DX005 (ip), vehicle: Klucel (hydroxypropylcellulose) (HPC)
[11] = dose: 100.0 mg/kg/injection, schedule: Q01DX005 (ip), vehicle: Klucel (hydroxypropylcellulose) (HPC)
[12] = dose: 200.0 mg/kg/injection, schedule: Q01DX005 (ip), vehicle: Klucel (hydroxypropylcellulose) (HPC)

Measured: T/C

O=C(Nc1cc(Cl)c(Cl)cc1Cl)OCc1ccc2c(c1)OCO2
inactive: dose: 15.0 mg/kg/injection, schedule: Q01DX005 (ip), vehicle: saline with Tween-80 100 % of control | dose: 30.0 mg/kg/injection, schedule: Q01DX005 (ip), vehicle: saline with Tween-80 94 % of control | [1] 89 % of control and 91 % of control

O=C1CCC(C2(O)c3ccccc3-c3ccccc32)C(=O)N1 (centres undefined)
inactive: [1] 95 % of control | [2] 96 % of control | dose: 240.0 mg/kg/injection, schedule: Q01DX005 (ip), vehicle: saline with Tween-80 95 % of control

O=C(NC1CCCCC1)OCC1OC(n2cnc3c(=O)[nH]cnc32)C(OC(=O)NC2CCCCC2)C1OC(=O)NC1CCCCC1 (centres undefined)
inactive: dose: 6.25 mg/kg/injection, schedule: Q01DX005 (ip), vehicle: saline with Tween-80 98 % of control | dose: 12.5 mg/kg/injection, schedule: Q01DX005 (ip), vehicle: saline with Tween-80 90 % of control | dose: 25.0 mg/kg/injection, schedule: Q01DX005 (ip), vehicle: saline with Tween-80 90 % of control

CC1(C)C=Cc2c(O)c(C(=O)/C=C/c3ccccc3)c3c(c2O1)C=CC(C)(C)O3
inactive: dose: 5.25 mg/kg/injection, schedule: Q01DX005 (ip), vehicle: Klucel (hydroxypropylcellulose) (HPC) 100 % of control | dose: 10.5 mg/kg/injection, schedule: Q01DX005 (ip), vehicle: Klucel (hydroxypropylcellulose) (HPC) 95 % of control | dose: 21.0 mg/kg/injection, schedule: Q01DX005 (ip), vehicle: Klucel (hydroxypropylcellulose) (HPC) 97 % of control | dose: 42.0 mg/kg/injection, schedule: Q01DX005 (ip), vehicle: Klucel (hydroxypropylcellulose) (HPC) 86 % of control

O=C(O)/C=C/c1ccc(O)c(O)c1
inactive: [3] 101 % of control and 103 % of control | dose: 100.0 mg/kg/injection, schedule: Q01DX009 (ip), vehicle: saline 101 % of control and 118 % of control | dose: 200.0 mg/kg/injection, schedule: Q01DX009 (ip), vehicle: saline 102 % of control and 107 % of control | dose: 400.0 mg/kg/injection, schedule: Q01DX009 (ip), vehicle: saline 100 % of control and 103 % of control | dose: 600.0 mg/kg/injection, schedule: Q01DX009 (ip), vehicle: saline 116 % of control

CCCN(CCC)CCC(=O)OCC
inactive: dose: 100.0 mg/kg/injection, schedule: Q04DX003 (ip), vehicle: saline with Tween-80 118 % of control | dose: 200.0 mg/kg/injection, schedule: Q04DX003 (ip), vehicle: saline with Tween-80 100 % of control | dose: 400.0 mg/kg/injection, schedule: Q04DX003 (ip), vehicle: saline with Tween-80 100 % of control

CC1CCC2(C(=O)O)CCC3(C)C(=CCC4C5(C)CCC(OC(=O)/C=C/c6ccccc6)C(C)(C)C5CCC43C)C2C1C (centres undefined)
inactive: dose: 7.44 mg/kg/injection, schedule: Q01DX009 (ip), vehicle: Klucel (hydroxypropylcellulose) (HPC) 107 % of control | dose: 14.88 mg/kg/injection, schedule: Q01DX009 (ip), vehicle: Klucel (hydroxypropylcellulose) (HPC) 100 % of control | dose: 29.76 mg/kg/injection, schedule: Q01DX009 (ip), vehicle: Klucel (hydroxypropylcellulose) (HPC) 101 % of control

COCCO[Si](OCCOC)(OCCOC)OCCOC
inactive: [4] 99 % of control | [5] 87 % of control

CN(C)CCCN1c2ccccc2C2CC2c2ccccc21 (centres undefined)
inactive: dose: 5.0 mg/kg/injection, schedule: Q01DX009 (ip), vehicle: saline with Tween-80 100 % of control | [6] 98 % of control

O=C1C(Cl)=C(N=Nc2c(Cl)c(O)c3ccccc3c2O)C(=O)c2ccccc21
inactive: dose: 1.56 mg/kg/injection, schedule: Q01DX009 (ip), vehicle: saline 101 % of control and 111 % of control | dose: 3.12 mg/kg/injection, schedule: Q01DX009 (ip), vehicle: saline 103 % of control and 108 % of control | dose: 6.25 mg/kg/injection, schedule: Q01DX009 (ip), vehicle: saline 108 % of control and 109 % of control | dose: 12.5 mg/kg/injection, schedule: Q01DX009 (ip), vehicle: saline 107 % of control and 117 % of control | dose: 25.0 mg/kg/injection, schedule: Q01DX009 (ip), vehicle: saline 102 % of control and 109 % of control | dose: 25.0 mg/kg/injection, schedule: Q01DX010 (ip), vehicle: saline 109 % of control | [3] 90 % of control and 97 % of control | dose: 50.0 mg/kg/injection, schedule: Q01DX010 (ip), vehicle: saline 100 % of control | dose: 100.0 mg/kg/injection, schedule: Q01DX010 (ip), vehicle: saline 109 % of control

CN(C)CCOc1cccc2c1CCC2
inactive: [1] 107 % of control | [2] 87 % of control

Cc1cc(N=NC(N)=S)c2ccccc2c1O
inactive: dose: 25.0 mg/kg/injection, schedule: Q04DX003 (ip), vehicle: Klucel (hydroxypropylcellulose) (HPC) 100 % of control | dose: 50.0 mg/kg/injection, schedule: Q04DX003 (ip), vehicle: Klucel (hydroxypropylcellulose) (HPC) 97 % of control | [7] 102 % of control | [8] 100 % of control

Nn1nnc(-c2ccccc2)n1
inactive: [4] 96 % of control | [5] 96 % of control | [9] 97 % of control

N#CC1CCC(c2ccccc2)(c2ccccc2)C1=O (centres undefined)
inactive: [7] 94 % of control | [8] 95 % of control

COc1cc2nc(C)[n+]3nc([O-])ccc3c2cc1OC
inactive: dose: 60.0 mg/kg/injection, schedule: Q01DX005 (ip), vehicle: suspension in saline 112 % of control | dose: 120.0 mg/kg/injection, schedule: Q01DX005 (ip), vehicle: suspension in saline 104 % of control | dose: 240.0 mg/kg/injection, schedule: Q01DX005 (ip), vehicle: suspension in saline 108 % of control

CCOC(=O)/C(C#N)=C/c1ccc(OC)c(OC)c1
inactive: [10] 99 % of control | [11] 108 % of control | [12] 100 % of control

CCC(=O)Nc1ccc(C(=O)NCCN(CC)CC)cc1
inactive: [10] 105 % of control | [11] 104 % of control | [12] 100 % of control

Cc1ccc(S(=O)(=O)C(C#N)(CCC(=O)/C=C/c2ccccc2)CCC(=O)/C=C/c2ccccc2)cc1
inactive: [10] 99 % of control | [11] 92 % of control | [12] 92 % of control

O=C1C=CC(=O)C=C1 (tested in a mixture with another compound)
inactive: dose: 1.0 mg/kg/injection, schedule: Q01DX009 (ip), vehicle: saline sonified 100 % of control | dose: 2.0 mg/kg/injection, schedule: Q01DX009 (ip), vehicle: saline sonified 109 % of control | dose: 3.0 mg/kg/injection, schedule: Q01DX009 (ip), vehicle: saline sonified 100 % of control | dose: 6.0 mg/kg/injection, schedule: Q01DX009 (ip), vehicle: saline sonified 100 % of control

Cc1ccc([N+](=O)[O-])c2ccccc12
inactive: [4] 113 % of control and 97 % of control | dose: 50.0 mg/kg/injection, schedule: Q01DX009 (ip), vehicle: saline with Tween-80 109 % of control | [5] 100 % of control and 98 % of control | [6] 100 % of control | [9] 103 % of control and 120 % of control | dose: 200.0 mg/kg/injection, schedule: Q01DX009 (ip), vehicle: saline with Tween-80 96 % of control | dose: 400.0 mg/kg/injection, schedule: Q01DX009 (ip), vehicle: Klucel (hydroxypropylcellulose) (HPC) 86 % of control and 97 % of control

CN(C)C1C(=O)C(C(=O)NCN2CCCC2)=C(O)C2(O)C(=O)C3=C(O)c4c(O)cccc4C(C)(O)C3CC12 (centres undefined)
inactive: dose: 50.0 mg/kg/injection, schedule: Q01DX005 (ip), vehicle: saline with Tween-80 96 % of control | dose: 100.0 mg/kg/injection, schedule: Q01DX005 (ip), vehicle: saline with Tween-80 95 % of control | dose: 200.0 mg/kg/injection, schedule: Q01DX005 (ip), vehicle: saline with Tween-80 97 % of control
